Patent US10961242B2, “Compounds as autotaxin inhibitors and pharmaceutical compositions comprising the same” (LegoChem Biosciences, Inc., priority 2018, dated 2021)
Counter-ions that a name gives are not always drawn.

Target: human ENPP2 (Homo sapiens (Human), UniProt Q13822)
Assay: Inhibitory activity on human ENPP2 (FS-3 assay)
Format: biochemical
Details: human ENPP2, FS-3 substrate, 30 min at 37° C.; read-out: IC50
Method: Two-fold dilution of each test compound solution (10 μM, 100% dimethyl sulfoxide) is carried out on 96-well V bottom plate (Costar 3363). After ten-fold dilution of each the test compound solution (100% dimethyl sulfoxide) with deionized distilled water, 10 μL of the diluted each mpound solution (10% dimethyl sulfoxide) was aliquoted to a black flat bottom 96-well plate (Costar 3915).

| IC50 | Compound |
| --- | --- |
| 3.3 nM | O=C(NCCC(=O)N1CCc2[nH]nnc2C1)c1cnc(NC2Cc3ccccc3C2)nc1 [Compound 1, 2-[(2,3-dihydro-1H-inden-2-yl)amino]-N-(3-oxo-3-{1H,4H,5H,6H,7H-[1,2,3]triazolo[4,5-c]pyridin-5-yl}propyl)pyrimidine-5-carboxamide] |
| 14.3 nM | O=C(NCC(=O)N1CCc2[nH]nnc2C1)c1cnc(NCc2cccc(OC(F)(F)F)c2)nc1 [Compound 3, N-(2-oxo-2-{1H,4H,5H,6H,7H-[1,2,3]triazolo[4,5-c]pyridin-5-yl}ethyl)-2-({[3-(trifluoromethoxy)phenyl]methyl}amino)pyrimidine-5-carboxamide] |
| 18.9 nM | CC(NC(=O)c1cnc(NCc2cccc(OC(F)(F)F)c2)nc1)C(=O)N1CCc2[nH]nnc2C1 (stereo not shown) [Compound 4, N-(1-oxo-1-{1H,4H,5H,6H,7H-[1,2,3]triazolo[4,5-c]pyridin-5-yl}propan-2-yl)-2-({[3-(trifluoromethoxy)phenyl]methyl}amino)pyrimidine-5-carboxamide] |
| 3.5 nM | O=C(c1cnc(NCc2cccc(OC(F)(F)F)c2)nc1)N1CCC2(CC1)CC(CN1CCc3[nH]nnc3C1)=NO2 [Compound 8, 5-(3-{1H,4H,5H,6H,7H-[1,2,3]triazolo[4,5-c]pyridin-5-ylmethyl}-1-oxa-2,8-diazaspiro[4,5]dec-2-ene-8-carbonyl)-N-{[3-(trifluoromethoxy)phenyl]methyl}pyrimidin-2-amine] |
| 2.2 nM | O=C(CCc1ccc2[nH]c(=O)oc2c1)N1CCC(c2cnc(NC3Cc4ccccc4C3)nc2)CC1 [Compound 16, 6-[3-(4-{2-[(2,3-dihydro-1H-inden-2-yl)amino]pyrimidin-5-yl}piperidin-1-yl)-3-oxopropyl]-2,3-dihydro-1,3-benzoxazol-2-one] |
| 3.4 nM | O=C(CN1CCc2[nH]nnc2C1)N1CCN(c2cnc(NC3Cc4ccccc4C3)nc2)CC1 [Compound 17, 1-(4-{2-[(2,3-dihydro-1H-inden-2-yl)amino]pyrimidin-5-yl}piperazin-1-yl)-2-{1H,4H,5H,6H,7H-[1,2,3]triazolo[4,5-c]pyridin-5-yl}ethan-1-one] |
| 3.6 nM | O=C(CN1CCc2[nH]nnc2C1)N1CCN(c2cnc(NCc3cccc(OC(F)(F)F)c3)nc2)CC1 [Compound 18] |
| 4.1 nM | O=C(CN1CCN(c2cnc(NCc3cccc(OC(F)(F)F)c3)nc2)CC1)N1CCc2[nH]nnc2C1 [Compound 21, 1-{1H,4H,5H,6H,7H-[1,2,3]triazolo[4,5-c]pyridin-5-yl}-2-{4-[2-({[3-(trifluoromethoxy)phenyl]methyl}amino)pyrimidin-5-yl]piperazin-1-yl}ethan-1-one] |
| 6.8 nM | O=C(CCN1CCN(c2cnc(NC3Cc4ccccc4C3)nc2)CC1)N1CCc2[nH]nnc2C1 [Compound 23] |
| 13.1 nM | O=C1O[C@@H](CN2CCN(c3cnc(NC4Cc5ccccc5C4)nc3)CC2)CN1c1ccc2[nH]c(=O)oc2c1 [Compound 26, 6-[(5S)-5-[(4-{2-[(2,3-dihydro-1H-inden-2-yl)amino]pyrimidin-5-yl}piperazin-1-yl)methyl]-2-oxo-1,3-oxazolidin-3-yl]-2,3-dihydro-1,3-benzoxazol-2-one] |
| 3.1 nM | O=C(CN1CCN(c2cnc(NC3Cc4ccccc4C3)nc2)CC1)c1ccc2[nH]c(=O)oc2c1 [Compound 28, 6-[2-(4-{2-[(2,3-dihydro-1H-inden-2-yl)amino]pyrimidin-5-yl}piperazin-1-yl)acetyl]-2,3-dihydro-1,3-benzoxazol-2-one] |
| 3.9 nM | O=c1[nH]c2ccc(/C(CN3CCN(c4cnc(NC5Cc6ccccc6C5)nc4)CC3)=N\O)cc2o1 [Compound 29, 6-[(1E)-2-(4-{2-[(2,3-dihydro-1H-inden-2-yl)amino]pyrimidin-5-yl}piperazin-1-yl)-1-(hydroxyimino)ethyl]-2,3-dihydro-1,3-benzoxazol-2-one] |
| 11.8 nM | O=c1[nH]c2ccc(C3=NOC(CN4CCN(c5cnc(NC6Cc7ccccc7C6)nc5)CC4)C3)cc2o1 (stereo not shown) [Compound 31, 6-{5-[(4-{2-[(2,3-dihydro-1H-inden-2-yl)amino]pyrimidin-5-yl}piperazin-1-yl)methyl]-4,5-dihydro-1,2-oxazol-3-yl}-2,3-dihydro-1,3-benzoxazol-2-one] |
| 2.4 nM | O=C(Cc1nnc(-c2cnc(NC3Cc4ccccc4C3)nc2)o1)N1CCc2[nH]nnc2C1 [Compound 33, 2-(5-(2-((2,3-dihydro-1H-inden-2-yl)amino)pyrimidin-5-yl)-1,3,4-oxadiazol-2-yl)-1-(1,4,6,7-tetrahydro-5H-[1,2,3]triazolo[4,5-c]pyridin-5-yl) ethan-1-one] |
| 2.9 nM | O=C(Cc1nnc(-c2ccc(NC3Cc4ccccc4C3)nc2)o1)N1CCc2[nH]nnc2C1 [Compound 36, 2-(5-{6-[(2,3-dihydro-1H-inden-2-yl)amino]pyridin-3-yl}-1,3,4-oxadiazol-2-yl)-1-{1H,4H,5H,6H,7H-[1,2,3]triazolo[4,5-c]pyridin-5-yl}ethan-1-one] |
| 4 nM | O=C(Cc1nnc(-c2cnc(NC3Cc4ccccc4C3)nc2)o1)N1CCc2nc[nH]c2C1 [Compound 38, 2-(5-{2-[(2,3-dihydro-1H-inden-2-yl)amino]pyrimidin-5-yl}-1,3,4-oxadiazol-2-yl)-1-{3H,4H,5H,6H,7H-imidazo[4,5-c]pyridin-5-yl}ethan-1-one] |
| 10.6 nM | O=C(Cc1nnc(-c2cnc(NC3Cc4ccccc4C3)nc2)o1)N1CCc2[nH]c(=O)ccc2C1 [Compound 39, 6-[2-(5-{2-[(2,3-dihydro-1H-inden-2-yl)amino]pyrimidin-5-yl}-1,3,4-oxadiazol-2-yl)acetyl]-1,2,5,6,7,8-hexahydro-1,6-naphthyridin-2-one] |
| 10.1 nM | O=C(Cc1nnc(-c2cnc(NC3Cc4ccccc4C3)nc2)o1)N1CCc2[nH]c(=O)[nH]c2C1 [Compound 40, 5-[2-(5-{2-[(2,3-dihydro-1H-inden-2-yl)amino]pyrimidin-5-yl}-1,3,4-oxadiazol-2-yl)acetyl]-1H,2H,3H,4H,5H,6H,7H-imidazo[4,5-c]pyridin-2-one] |
| 8.1 nM | O=C(Cc1nnc(-c2cnc(NC3Cc4ccccc4C3)nc2)o1)N1CCc2[nH]ncc2C1 [Compound 42, 2-(5-{2-[(2,3-dihydro-1H-inden-2-yl)amino]pyrimidin-5-yl}-1,3,4-oxadiazol-2-yl)-1-{1H,4H,5H,6H,7H-pyrazolo[4,3-c]pyridin-5-yl}ethan-1-one] |
| 11.2 nM | Nc1nc2c(s1)CCN(C(=O)Cc1nnc(-c3cnc(NC4Cc5ccccc5C4)nc3)o1)C2 [Compound 43, 1-{2-amino-4H,5H,6H,7H-[1,3]thiazolo[4,5-c]pyridin-5-yl}-2-(5-{2-[(2,3-dihydro-1H-inden-2-yl)amino]pyrimidin-5-yl}-1,3,4-oxadiazol-2-yl)ethan-1-one] |
| 16.6 nM | O=C(Cc1nnc(-c2cnc(NC3Cc4ccccc4C3)nc2)o1)N1CCc2cn[nH]c2C1 [Compound 44, 2-(5-{2-[(2,3-dihydro-1H-inden-2-yl)amino]pyrimidin-5-yl}-1,3,4-oxadiazol-2-yl)-1-{1H,4H,5H,6H,7H-pyrazolo[3,4-c]pyridin-6-yl}ethan-1-one] |
| 2.6 nM | O=C(Cn1cc(-c2cnc(NC3Cc4ccccc4C3)nc2)c(CN2CCCNCC2)n1)N1CCc2[nH]nnc2C1 [Compound 90, 2-[3-(1,4-diazepan-1-ylmethyl)-4-{2-[(2,3-dihydro-1H-inden-2-yl)amino]pyrimidin-5-yl}-1H-pyrazol-1-yl]-1-{1H,4H,5H,6H,7H-[1,2,3]triazolo[4,5-c]pyridin-5-yl}ethan-1-one. HCl] |
